# According to the supplement of paper PMC10307832:
# Assays:
# Experiment in all cases: relative viability (nuclei count vs DMSO), 5 days (fraction); higher = more cells survive
# [1] = compound: CN(c1ncccc1CNc1nc(Nc2ccc3c(c2)CC(=O)N3)ncc1C(F)(F)F)S(C)(=O)=O + CS(=O)(=O)N1CCN(Cc2cc3nc(-c4cccc5[nH]ncc45)nc(N4CCOCC4)c3s2)CC1 [Pictilisib] (partner 1 µM)
# Method in brief: (§1)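 After 5 days of treatment, lung cancer cells in 1536-well plates were fixed and stained in a single step (final 0.05% Triton X-100, 1% formaldehyde, 1 ug/ml Hoechst) and their nuclei counted on 4× images. Treatment had been applied by pin tool the day after seeding as one drug alone or as a fixed anchor-drug dose with five library-drug doses (not always all listed) in √10 steps. Relative viability is the nuclei count of treated wells divided by that of vehicle wells, and values are medians of duplicate plates.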
# [2] = compound: CN(c1ncccc1CNc1nc(Nc2ccc3c(c2)CC(=O)N3)ncc1C(F)(F)F)S(C)(=O)=O + C[C@]1(O)C[C@@H](c2nc(-c3ccc4ccc(-c5ccccc5)nc4c3)c3c(N)nccn32)C1 [Linsitinib] (partner 1 µM)
# Method in brief: as §1
# [3] = compound: CN(c1ncccc1CNc1nc(Nc2ccc3c(c2)CC(=O)N3)ncc1C(F)(F)F)S(C)(=O)=O + Cc1nc(NC(=O)N2CCC[C@H]2C(N)=O)sc1-c1ccnc(C(C)(C)C(F)(F)F)c1 [Alpelisib] (partner 2 µM)
# Method in brief: as §1
# [4] = compound: CN(c1ncccc1CNc1nc(Nc2ccc3c(c2)CC(=O)N3)ncc1C(F)(F)F)S(C)(=O)=O + Nc1ncn([C@H]2C[C@H](O)[C@@H](CO)O2)c(=O)n1 [Decitabine] (partner 2 µM)
# Method in brief: as §1
Cell Line,relative viability ([1]; first compound 0.01 µM),relative viability ([1]; first compound 0.03162 µM),relative viability ([1]; first compound 0.1 µM),relative viability ([1]; first compound 0.3162 µM),relative viability ([1]; first compound 1 µM),relative viability ([2]; first compound 0.01 µM),relative viability ([2]; first compound 0.03162 µM),relative viability ([2]; first compound 0.1 µM),relative viability ([2]; first compound 0.3162 µM),relative viability ([2]; first compound 1 µM),relative viability ([3]; first compound 0.01 µM),relative viability ([3]; first compound 0.03162 µM),relative viability ([3]; first compound 0.1 µM),relative viability ([3]; first compound 0.3162 µM),relative viability ([3]; first compound 1 µM),relative viability ([4]; first compound 0.01 µM),relative viability ([4]; first compound 0.03162 µM),relative viability ([4]; first compound 0.1 µM),relative viability ([4]; first compound 0.3162 µM),relative viability ([4]; first compound 1 µM)
COR-L 105,0.435,0.395,0.383,0.427,0.426,0.964,1,1.09,0.882,0.67,1.06,1.16,1.13,0.887,0.872,0.762,0.68,0.728,0.733,0.697
LK-2,0.585,0.625,0.586,0.794,0.462,0.631,0.534,0.546,0.526,0.766,0.955,1.35,0.927,0.959,1.08,0.287,0.294,0.31,0.308,0.292
NCI-H727,0.459,0.269,0.393,0.31,0.344,0.317,0.305,0.352,0.273,0.21,0.638,0.606,0.565,0.448,0.444,0.943,0.827,0.793,0.896,0.936
RERF-LC-KJ,0.494,0.577,0.551,0.548,0.622,0.838,0.964,0.877,0.83,0.933,0.838,0.955,0.813,0.765,0.825,0.651,0.71,0.645,0.793,0.764
NCI-H2023,0.265,0.329,0.199,0.225,0.2,0.765,0.714,0.73,0.71,0.631,0.521,0.677,0.668,0.59,0.507,0.23,0.259,0.218,0.234,0.202
NCI-H322M,0.495,0.48,–,0.593,0.553,1.02,1.08,–,1.1,1.16,0.821,0.79,–,0.902,0.96,0.697,0.802,0.775,0.681,0.714
NCI-H1666,0.549,0.373,0.404,0.532,0.404,0.814,0.816,0.943,0.72,0.612,1.11,0.72,0.877,0.79,0.686,0.729,0.749,0.642,0.666,0.628
SW 900,–,–,–,–,–,–,–,–,–,–,–,–,–,–,–,0.437,0.466,0.425,0.449,0.454
NCI-H2087,0.852,0.77,0.978,0.914,0.951,1.03,1.04,1.14,1.16,0.99,1.14,1.18,1.11,1.12,1.19,0.312,0.255,0.256,0.36,0.299
LU99A,0.314,0.357,0.342,0.373,0.335,0.582,0.552,0.609,0.537,0.656,0.48,0.62,0.525,0.588,0.577,0.959,0.996,0.907,0.874,0.913
HCC-366,0.108,0.155,0.0871,0.197,0.19,0.488,0.913,0.591,0.576,0.508,0.35,0.471,0.455,0.389,0.309,0.332,0.369,0.327,0.354,0.307
EKVX,0.462,0.422,0.418,0.375,0.431,0.94,1.13,0.85,0.931,0.882,0.771,0.905,0.859,0.812,0.864,0.372,0.327,0.301,0.342,0.335
NCI-H2342,–,–,–,–,–,–,–,–,–,–,–,–,–,–,–,0.802,0.728,0.631,0.742,0.717
NCI-H1755,0.436,0.417,0.426,0.477,0.451,0.997,0.951,0.961,0.979,0.908,0.904,0.946,0.94,0.82,0.848,0.682,0.728,0.721,0.646,0.707
NCI-H647,0.529,0.365,0.38,–,0.594,1.1,1.4,1.13,0.95,1.1,1.09,0.919,1.14,1.02,1.17,0.425,0.51,0.498,0.544,0.502
LC-2-ad,0.567,0.552,0.647,0.928,0.66,0.85,0.784,0.862,0.786,0.847,0.789,0.714,0.883,0.902,0.877,0.789,0.833,0.828,0.852,0.863
NCI-H1793,0.285,0.393,0.208,0.319,0.265,0.883,0.929,0.894,0.857,0.601,0.77,0.765,0.611,0.674,0.659,0.494,0.563,0.458,0.45,0.432
HCC-827,0.878,1.08,1.09,1.15,1.07,0.999,0.915,0.93,0.905,0.914,1.02,1.07,1.03,1.01,0.942,0.284,0.309,0.348,0.413,0.391
HCC-78,0.228,0.167,0.216,0.188,0.165,0.654,0.578,0.425,0.439,0.486,0.368,0.407,0.285,0.361,0.31,0.755,0.699,0.719,0.636,0.697

Cell Line,relative viability ([1]; first compound 0.01 µM),relative viability ([1]; first compound 0.03162 µM),relative viability ([1]; first compound 0.1 µM),relative viability ([1]; first compound 0.3162 µM),relative viability ([1]; first compound 1 µM),relative viability ([2]; first compound 0.01 µM),relative viability ([2]; first compound 0.03162 µM),relative viability ([2]; first compound 0.1 µM),relative viability ([2]; first compound 0.3162 µM),relative viability ([2]; first compound 1 µM),relative viability ([3]; first compound 0.01 µM),relative viability ([3]; first compound 0.03162 µM),relative viability ([3]; first compound 0.1 µM),relative viability ([3]; first compound 0.3162 µM),relative viability ([3]; first compound 1 µM),relative viability ([4]; first compound 0.01 µM),relative viability ([4]; first compound 0.03162 µM),relative viability ([4]; first compound 0.1 µM),relative viability ([4]; first compound 0.3162 µM),relative viability ([4]; first compound 1 µM)
NCI-H2085,0.449,0.49,0.624,0.469,0.515,0.925,0.981,0.895,0.842,0.776,0.903,0.904,0.882,0.922,0.812,0.545,0.577,0.547,0.548,0.522
PC-14,0.829,0.872,0.716,0.66,0.533,0.976,1,1.06,0.961,1.01,1.02,1.07,0.982,0.951,0.869,0.197,0.225,0.254,0.245,0.269
NCI-H1648,–,–,–,–,–,–,–,–,–,–,–,–,–,–,–,0.6,0.476,0.426,0.485,0.367
A-427,0.69,0.753,0.638,0.73,0.667,1.12,1.12,1.1,1.14,1.06,1.09,1.15,1.02,1.15,1.08,0.549,0.568,0.588,0.664,0.61
H3255,0.422,0.537,0.413,0.505,0.382,0.924,0.949,0.988,0.912,0.922,1.04,0.853,0.617,0.468,0.772,0.633,0.587,0.572,0.552,0.615
HCC-44,0.478,0.623,0.617,0.678,0.658,0.73,0.688,0.722,0.714,0.664,0.872,0.792,0.789,0.824,0.778,0.871,0.956,0.898,0.977,0.996
NCI-H1734,0.418,0.555,0.454,0.468,0.475,0.939,1.01,0.796,0.966,0.751,0.665,0.778,0.666,0.631,0.641,0.473,0.535,0.571,0.524,0.55
NCI-H2228,0.422,0.453,0.376,0.358,0.294,0.502,0.286,0.627,1.06,0.929,0.634,0.766,0.857,0.633,0.701,–,–,–,–,–
ABC-1,0.74,0.822,0.746,0.952,0.847,0.908,0.914,0.75,0.814,0.967,0.777,1.22,1.36,0.963,0.913,1.01,1.17,0.949,0.944,1.09
COR-L23,0.793,0.824,0.922,0.874,0.585,0.853,0.983,0.818,1.07,0.735,0.742,0.846,0.713,0.647,0.702,0.417,0.493,0.44,0.503,0.399
NCI-H661,0.578,0.335,0.405,0.378,0.383,0.657,0.722,0.563,0.679,0.637,0.817,0.695,0.546,0.85,0.5,0.551,0.649,0.589,0.56,0.568
ChaGo-K-1,0.753,0.518,0.973,–,1.15,–,–,–,–,–,–,–,–,–,–,0.565,0.549,0.438,0.527,0.492
NCI-H1650,0.557,0.676,0.609,–,0.581,–,–,–,–,–,–,–,–,–,–,0.502,0.474,0.513,0.426,0.47
EBC-1,0.365,0.325,0.391,0.36,0.305,0.951,1.01,0.889,0.91,0.788,0.869,0.885,0.877,0.948,0.654,–,–,–,–,–
NCI-H1703,0.266,0.243,0.248,0.229,0.235,0.692,0.647,0.756,0.836,0.637,0.329,0.419,0.321,0.345,0.294,–,–,–,–,–
CAL-12T,0.43,0.305,0.28,0.318,0.498,0.886,0.861,0.705,0.616,0.639,1.12,1.58,1.26,1.16,0.946,–,–,–,–,–
NCI-H1563,0.602,0.629,0.657,0.722,0.662,1.16,1.23,1.31,1.07,1.06,0.867,1.03,0.897,0.917,0.933,–,–,–,–,–
NCI-H2170,0.355,0.312,0.316,–,0.332,–,–,–,–,–,0.762,0.874,0.862,–,0.786,0.528,0.463,0.417,0.459,0.448
